From patent US20230183323A1 (BROWN UNIVERSITY, priority 2020, published 2023)
Where a name gives a salt, the structure may show the parent alone.

B1: FRG: anti-CHI3L1 monoclonal antibody; heavy chain SEQ ID NO: 13, light chain SEQ ID NO: 14 (antibody, V domains shown)
VH: QIQLVQSGPELKKPGETVKISCKASGYTFTNYGMNWVKQAPGKGLKWMGWINTYTGEPTYADDFKGRFAFSLETSASTAYLQINNLRNEDMSTYFCARLGYGKFYVMDYWGQGTSVTVSS
VL: DVVMTQTPLSLPVSLGDQASISCRSSQSLVHSNGNTYLHWYLQKPGQSPKLLIYKVSNRFSGVPDRFSGSGSGTDFTLKISRVEAEDLGVYFCSQSTHVTWTFGGGTKLEIK

Key:
[1] = biological target: CDK1 (Homo sapiens, UniProt P06493); conditions: cited from earlier work
Sequence of CDK1 (P06493 whole entry, species assumed): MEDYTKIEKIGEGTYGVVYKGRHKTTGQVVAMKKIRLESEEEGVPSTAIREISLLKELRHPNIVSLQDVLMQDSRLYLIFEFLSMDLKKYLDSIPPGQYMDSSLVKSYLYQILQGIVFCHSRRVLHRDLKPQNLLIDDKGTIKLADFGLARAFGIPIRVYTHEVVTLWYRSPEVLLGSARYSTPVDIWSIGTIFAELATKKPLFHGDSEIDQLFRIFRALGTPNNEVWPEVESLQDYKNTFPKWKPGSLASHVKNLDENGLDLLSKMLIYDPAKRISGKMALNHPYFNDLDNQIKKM
Sequence of CDK1 (P14635 whole entry partner, species assumed): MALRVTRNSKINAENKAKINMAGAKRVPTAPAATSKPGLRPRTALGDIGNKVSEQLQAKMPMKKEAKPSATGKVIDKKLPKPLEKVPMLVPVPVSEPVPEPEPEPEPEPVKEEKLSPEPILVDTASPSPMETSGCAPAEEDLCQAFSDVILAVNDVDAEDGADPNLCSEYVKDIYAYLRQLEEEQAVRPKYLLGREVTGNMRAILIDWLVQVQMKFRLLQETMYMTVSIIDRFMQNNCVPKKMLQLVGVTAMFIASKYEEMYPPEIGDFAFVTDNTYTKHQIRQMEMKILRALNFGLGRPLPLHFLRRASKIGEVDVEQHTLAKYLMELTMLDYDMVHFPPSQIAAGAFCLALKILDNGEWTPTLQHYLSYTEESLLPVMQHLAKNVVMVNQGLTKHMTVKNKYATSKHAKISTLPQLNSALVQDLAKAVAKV

[2] = biological target: CDK4 (Homo sapiens, UniProt P11802); conditions: cited from earlier work
Sequence of CDK4 (P11802 whole entry, species assumed): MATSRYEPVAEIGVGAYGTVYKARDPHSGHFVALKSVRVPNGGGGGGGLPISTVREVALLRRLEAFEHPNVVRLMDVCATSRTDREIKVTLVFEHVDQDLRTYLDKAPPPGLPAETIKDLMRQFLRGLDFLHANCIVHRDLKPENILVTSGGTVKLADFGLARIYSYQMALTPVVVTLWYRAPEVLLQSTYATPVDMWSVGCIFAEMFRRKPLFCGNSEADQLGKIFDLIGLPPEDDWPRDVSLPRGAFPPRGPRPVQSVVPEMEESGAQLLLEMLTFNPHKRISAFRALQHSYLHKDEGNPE
Sequence of CDK4 (P24385 whole entry partner, species assumed): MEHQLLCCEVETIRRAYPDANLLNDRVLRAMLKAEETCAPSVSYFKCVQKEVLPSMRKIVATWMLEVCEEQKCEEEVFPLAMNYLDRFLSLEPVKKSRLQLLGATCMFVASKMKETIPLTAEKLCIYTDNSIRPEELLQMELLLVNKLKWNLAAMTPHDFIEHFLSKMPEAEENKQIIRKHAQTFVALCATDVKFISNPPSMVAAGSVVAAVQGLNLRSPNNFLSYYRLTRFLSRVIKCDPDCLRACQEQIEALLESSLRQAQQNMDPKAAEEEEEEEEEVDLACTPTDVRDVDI

[3] = biological target: CDK5 (Homo sapiens, UniProt Q00535); conditions: cited from earlier work
Sequence of CDK5 (Q00535 whole entry): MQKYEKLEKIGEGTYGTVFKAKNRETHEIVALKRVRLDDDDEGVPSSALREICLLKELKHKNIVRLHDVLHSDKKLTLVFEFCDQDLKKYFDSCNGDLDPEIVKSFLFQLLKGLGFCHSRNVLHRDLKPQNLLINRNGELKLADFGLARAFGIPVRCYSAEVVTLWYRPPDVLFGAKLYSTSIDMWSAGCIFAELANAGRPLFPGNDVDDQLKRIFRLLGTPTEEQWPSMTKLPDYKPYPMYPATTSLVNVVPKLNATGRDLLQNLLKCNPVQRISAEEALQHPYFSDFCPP
Sequence of CDK5 (Q15078 whole entry, further chain): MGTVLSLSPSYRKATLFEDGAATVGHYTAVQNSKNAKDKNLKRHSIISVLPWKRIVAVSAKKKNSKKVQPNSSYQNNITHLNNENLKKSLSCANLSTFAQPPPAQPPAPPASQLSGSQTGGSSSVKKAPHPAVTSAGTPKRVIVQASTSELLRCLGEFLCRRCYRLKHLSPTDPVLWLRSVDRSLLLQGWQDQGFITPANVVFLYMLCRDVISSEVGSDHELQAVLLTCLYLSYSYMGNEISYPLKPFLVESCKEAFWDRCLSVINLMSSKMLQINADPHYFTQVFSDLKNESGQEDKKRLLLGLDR

[4] = biological target: CDK6 (Homo sapiens, UniProt Q00534); design: key to the marks not given beside the values; conditions: cited from earlier work
Sequence of CDK6 (Q00534 whole entry, canonical isoform): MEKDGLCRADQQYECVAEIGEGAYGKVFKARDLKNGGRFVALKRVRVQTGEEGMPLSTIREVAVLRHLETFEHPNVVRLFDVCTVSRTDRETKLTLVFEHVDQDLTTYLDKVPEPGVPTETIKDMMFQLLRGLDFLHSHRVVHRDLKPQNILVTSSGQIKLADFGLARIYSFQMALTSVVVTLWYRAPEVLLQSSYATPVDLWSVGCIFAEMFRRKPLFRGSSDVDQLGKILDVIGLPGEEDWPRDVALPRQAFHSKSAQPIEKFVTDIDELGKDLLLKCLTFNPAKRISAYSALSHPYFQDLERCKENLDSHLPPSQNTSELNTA

[5] = biological target: CDK7 (Homo sapiens, UniProt P50613); design: key: + is used to indicate the potency of the inhibitor; ++++ > +++ > ++ > +; + is used to indicate the potency of the inhibitor; ++++ > +++ > ++ > +; + is used to indicate the potency of the inhibitor; ++++ > +++ > ++ > +; + is used to indicate the potency of the inhibitor; ++++ > +++ > ++ > +; ◯ refers to compounds with inhibitory effects on the related isoform, but without specific value; conditions: cited from earlier work
Sequence of CDK7 (P51946 whole entry, canonical isoform): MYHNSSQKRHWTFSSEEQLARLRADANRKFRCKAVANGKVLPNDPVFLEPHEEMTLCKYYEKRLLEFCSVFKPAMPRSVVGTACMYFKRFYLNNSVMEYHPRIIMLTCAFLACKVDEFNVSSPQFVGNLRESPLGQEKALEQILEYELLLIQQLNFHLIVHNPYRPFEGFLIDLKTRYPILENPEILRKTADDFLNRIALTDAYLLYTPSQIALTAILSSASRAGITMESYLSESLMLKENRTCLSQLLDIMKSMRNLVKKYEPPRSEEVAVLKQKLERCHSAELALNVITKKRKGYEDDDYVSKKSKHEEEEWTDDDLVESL
Sequence of CDK7 (P50613 whole entry, canonical isoform): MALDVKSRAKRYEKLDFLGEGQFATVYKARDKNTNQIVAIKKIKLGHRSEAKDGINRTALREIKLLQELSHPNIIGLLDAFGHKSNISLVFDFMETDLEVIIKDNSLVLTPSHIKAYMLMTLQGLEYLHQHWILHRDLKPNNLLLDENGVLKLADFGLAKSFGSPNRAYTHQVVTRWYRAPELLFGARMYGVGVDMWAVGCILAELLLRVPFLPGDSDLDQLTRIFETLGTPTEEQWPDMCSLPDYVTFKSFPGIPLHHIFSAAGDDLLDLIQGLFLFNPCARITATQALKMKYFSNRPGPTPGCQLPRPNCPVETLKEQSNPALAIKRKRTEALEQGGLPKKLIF
Sequence of CDK7 (P51948 whole entry, further chain, canonical isoform): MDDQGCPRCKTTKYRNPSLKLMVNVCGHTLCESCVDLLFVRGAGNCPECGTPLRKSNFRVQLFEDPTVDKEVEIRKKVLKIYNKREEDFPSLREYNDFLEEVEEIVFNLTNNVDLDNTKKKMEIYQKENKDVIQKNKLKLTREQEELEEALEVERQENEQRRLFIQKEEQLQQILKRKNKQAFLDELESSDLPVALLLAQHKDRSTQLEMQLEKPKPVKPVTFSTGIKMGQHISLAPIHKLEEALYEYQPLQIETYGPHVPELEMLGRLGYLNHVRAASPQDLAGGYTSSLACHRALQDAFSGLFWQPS

[6] = biological target: CDK9 (Homo sapiens, UniProt P50750); design: key: + is used to indicate the potency of the inhibitor; ++++ > +++ > ++ > +; + is used to indicate the potency of the inhibitor; ++++ > +++ > ++ > +; + is used to indicate the potency of the inhibitor; ++++ > +++ > ++ > +; + is used to indicate the potency of the inhibitor; ++++ > +++ > ++ > +; ◯ refers to compounds with inhibitory effects on the related isoform, but without specific value; conditions: cited from earlier work
Sequence of CDK9 (O60563 whole entry, canonical isoform): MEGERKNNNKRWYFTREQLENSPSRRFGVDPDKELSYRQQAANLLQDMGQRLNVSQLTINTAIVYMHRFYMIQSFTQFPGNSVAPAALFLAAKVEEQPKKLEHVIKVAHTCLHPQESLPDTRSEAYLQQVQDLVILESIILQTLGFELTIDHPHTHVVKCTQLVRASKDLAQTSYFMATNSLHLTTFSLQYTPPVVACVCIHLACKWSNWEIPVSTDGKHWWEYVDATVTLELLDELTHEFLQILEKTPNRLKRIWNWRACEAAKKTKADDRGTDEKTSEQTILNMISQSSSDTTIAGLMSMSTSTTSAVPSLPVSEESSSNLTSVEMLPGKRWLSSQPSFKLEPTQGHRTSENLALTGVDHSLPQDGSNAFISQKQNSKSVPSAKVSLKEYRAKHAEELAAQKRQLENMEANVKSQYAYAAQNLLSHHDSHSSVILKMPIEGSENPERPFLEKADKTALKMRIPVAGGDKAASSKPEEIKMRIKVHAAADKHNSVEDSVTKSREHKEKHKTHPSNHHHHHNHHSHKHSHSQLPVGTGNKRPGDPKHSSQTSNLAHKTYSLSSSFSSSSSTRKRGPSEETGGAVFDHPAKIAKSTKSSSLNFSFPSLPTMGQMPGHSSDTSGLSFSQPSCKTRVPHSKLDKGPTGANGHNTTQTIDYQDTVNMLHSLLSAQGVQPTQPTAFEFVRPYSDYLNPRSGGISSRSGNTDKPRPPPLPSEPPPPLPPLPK
Sequence of CDK9 (P50750 whole entry, canonical isoform): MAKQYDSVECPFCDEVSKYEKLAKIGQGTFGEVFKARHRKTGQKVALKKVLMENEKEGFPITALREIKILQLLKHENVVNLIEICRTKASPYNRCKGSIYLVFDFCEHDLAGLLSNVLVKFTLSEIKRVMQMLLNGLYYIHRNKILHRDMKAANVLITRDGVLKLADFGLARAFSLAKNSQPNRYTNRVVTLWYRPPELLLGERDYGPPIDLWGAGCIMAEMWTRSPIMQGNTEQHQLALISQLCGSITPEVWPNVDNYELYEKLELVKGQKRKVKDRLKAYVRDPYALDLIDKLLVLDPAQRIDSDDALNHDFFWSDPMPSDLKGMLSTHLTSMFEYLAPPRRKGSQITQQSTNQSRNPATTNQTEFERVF

[7] = test system: ACE2, TMPRSS2, CTSL, and FURIN mRNA in Calu-3 lung epithelial cells; experiment: RT-PCR of basal and CHI3L1 regulated expression in Calu-3 cells transfected with CHI3L1 cDNA, with flavopiridol; type: cell-based, human; conditions: 24 hours
Description: After transfection of the cells with empty vector (pcDNA) or full length CHI3L1 cDNA, the Calu-3 cells were incubated with flavopiridol (25 nM) or its vehicle control for 24 hours. Levels of mRNA encoding ACE2 (top left), TMPRSS2 (top right), CTSL (bottom left), and FURIN (bottom right) were assessed via RT-PCR. *p<0.05; **p<0.01 (Student's t-test).
(§1) Total cellular RNA was obtained using TRIzol reagent (ThermoFisher Scientific) followed by RNA extraction using RNeasy Mini Kit (Qiagen, Germantown, Md.) according to the manufacturer's instructions. mRNA was measured and used for real time (RT)-PCR as described previously.^55,56 The primer sequences used in these studies are summarized in Table 1. Ct values of the test genes were normalized to the internal housekeeping gene β-actin.
The next study assessed whether the inhibition of CHI3L1 phosphorylation wound result in similar effects observed with CHI3L1 inhibitors on the levels of mRNA encoding ACE2 and spike activating proteases (SAPs), namely FURIN, TMPRSS2, and CTSL, in Calu-3 cells (described in Example 1).

[8] = test system: serine phosphorylation of CHI3L1 in U87 cells; experiment: Co-IP/Immunoblot of CHI3L1 phosphorylation in U87 cells; type: cell-based; conditions: flavopiridol 50 nM unless otherwise indicated, time-dependent and dose-dependent
Description: U87 cells that endogenously express all components of chitosome were subjected to Co-IP/Immunoblot assays after Pan-CDK inhibitor flavopiridol treatment. Flavopiridol was used at 50 nM unless otherwise indicated. Hr, hours.

[9] = biological target: CDK2 (Homo sapiens, UniProt P24941); conditions: cited from earlier work
[10] = test system: CLK; design: key: + is used to indicate the potency of the inhibitor; ++++ > +++ > ++ > +; + is used to indicate the potency of the inhibitor; ++++ > +++ > ++ > +; + is used to indicate the potency of the inhibitor; ++++ > +++ > ++ > +; + is used to indicate the potency of the inhibitor; ++++ > +++ > ++ > +; ◯ refers to compounds with inhibitory effects on the related isoform, but without specific value; conditions: cited from earlier work
[11] = test system: ACE2, TMPRSS2, and CTSL mRNA in A549 cells; experiment: qRT-PCR of mRNA levels in A549 cells incubated with rhCHI3L1; type: cell-based, human; conditions: 24 hr
Description: as §1
In the first study, A549 cells were incubated with rhCHI3L1 from a commercial source (R&D Inc.) and rhCHI3L1 generated at Brown University (Brown). The cells were incubated for 24 hr with stimulation of rhCHI3L1 (500 ng/mL) at 37° C. mRNA was then extracted and the levels of mRNA for ACE2 and CTSL were evaluated by real time qRT-PCR and compared to vehicle controls. Levels were expressed in relationship to GAPDH controls.
In the next study, A549 cells were incubated with 0, 250 ng/mL, or 500 ng/mL of rhCHI3L1 for 24 hr with stimulation of rhCHI3L1 at 37° C. mRNA was then extracted and the levels of mRNA encoding ACE2, TMPRSS2, and CTSL were assessed via qRT-PCR.

[12] = test system: ACE2, TMPRSS2, and CTSL mRNA in normal human small airway epithelial cells (HSAEC); experiment: qRT-PCR of mRNA levels in HSAEC incubated with rhCHI3L1; type: cell-based; conditions: rhCHI3L1 500 ng/mL, 24 hours
Description: as §1
In the present study, normal HSAEC were incubated with 0, 100 ng/mL, or 500 ng/mL of rhCHI3L1 for 24 hours at 37° C. The levels of mRNA encoding ACE2, TMPRSS2, and CTSL were assessed via qRT-PCR and expressed in relationship to GAPDH controls.

[13] = test system: ACE2, FURIN, TMPRSS2, and CTSL mRNA in Calu-3 lung epithelial cells; experiment: RT-PCR of basal and rhCHI3L1 regulated expression in Calu-3 cells with FRG or KSM; type: cell-based, human
Description: Calu-3 cells were incubated with vehicle or rhCHI3L1 for 24 hours in the presence of KSM (250 ng/mL) or its vehicle control (PBS). Levels of mRNA encoding ACE2 (top left), FURIN (top right), TMPRSS2 (bottom left), and CTSL (bottom right) were assessed via RT-PCR. KSM diminished the levels of basal ACE2 expression and potently ameliorated the ability of rhCHI3L1 to stimulate ACE2 mRNA accumulation.
as §1
Calu-3 cells were incubated with vehicle or 250 ng/mL rhCHI3L1 for 24 hours in the presence of 250 ng/mL FRG or its isotype control (isotype) at 37° C. Levels of mRNA encoding ACE2, FURIN, TMPRSS2, and CTSL were assessed via RT-PCR.
Kasugamycin (KSM) is an inhibitor of CHI3L1 and chitinase 1. The present study assessed the effects of KSM on the levels of mRNA encoding ACE2, FURIN, TMPRSS2, and CTSL in Calu-3 cells.

[14] = test system: spike protein (S)-containing pseudovirus (D614 and G614 variants); type: cell-based; conditions: Calu-3 cells
[15] = Calu-3 cells, pcDNA or CHI3L1 cDNA, flavopiridol 25 nM
[16] = Calu-3 cells, rhCHI3L1 250 ng/mL, 24 hours
[17] = Calu-3 cells, 250 ng/mL rhCHI3L1, 250 ng/mL FRG vs isotype control, 24 hours

| Molecule | Inhibitory potency CDK1 [1] | Inhibitory potency CDK4 [2] | Inhibitory potency CDK5 [3] | Inhibitory potency CDK6 [4] | Inhibitory potency CDK7 [5] | Inhibitory potency CDK9 [6] | Inhibitory potency CDK2 [9] | Inhibitory potency CLK [10] | also measured |
| --- | --- | --- | --- | --- | --- | --- | --- | --- | --- |
| O=C(NC1CCNCC1)c1[nH]ncc1NC(=O)c1c(Cl)cccc1Cl [AT7519 HCl] | ++ | ++ | +++ | ++ | + | ++++ |  |  |  |
| CN1CC[C@H](c2c(O)cc(O)c3c(=O)cc(-c4ccccc4Cl)oc23)[C@H](O)C1 [Flavopiridol] | +++ | +++ |  | ++ | + |  | +++ |  | ability of CHI3L1 to stimulate ACE2 mRNA accumulation ([7]; Calu-3 cells transfected with full length CHI3L1 cDNA, flavopiridol 25 nM): potently inhibited; levels of basal ACE2 expression ([7]; Calu-3 cells, empty vector (pcDNA), flavopiridol 25 nM vs vehicle): diminished; basal and CHI3L1-stimulated expression of CTSL [7, 15]: potently decreased; basal and CHI3L1-stimulated expression of FURIN [7, 15]: potently decreased; basal and CHI3L1-stimulated expression of TMPRSS2 [7, 15]: potently decreased; serine phosphorylation of CHI3L1 [8]: blocked |
| Nc1nc(Nc2ccc(S(N)(=O)=O)cc2)nn1C(=O)c1c(F)cccc1F [JNJ-7706621] | ++++ | + |  | ++ |  |  | ++++ |  |  |
| Cc1ccc(CNc2ncnc3ccc(-c4ccc(CO)o4)cc23)o1 [ML167] |  |  |  |  |  |  |  | ++ |  |
| O=C1NCCc2[nH]c(-c3ccncc3)cc21 [PHA-767491] | ++ |  | + |  |  | +++ | ++ |  |  |
| CC(C)CC(=O)Nc1[nH]nc2c1CN(C(=O)C1CCN(C)CC1)C2(C)C [PHA-793887] | ++ | ++ | ++++ |  | ++++ | ++ | ++++ |  |  |
| CCN1/C(=C/C(C)=O)Sc2ccc(OC)cc21 [TG003] |  |  |  |  |  |  |  | +++ |  |
| NVP-LCQ195 | ++++ |  | ++++ |  | ◯ | ◯ | +++ | ◯ |  |
| rhCHI3L1: recombinant human CHI3L1 from a commercial source (R&D Inc.) or generated at Brown University |  |  |  |  |  |  |  |  | levels of mRNA encoding ACE2 ([11]; rhCHI3L1 0, 250 or 500 ng/mL): significantly upregulated; levels of mRNA encoding CTSL ([11]; rhCHI3L1 0, 250 or 500 ng/mL): significantly upregulated; levels of mRNA encoding TMPRSS2 ([11]; rhCHI3L1 0, 250 or 500 ng/mL): significantly upregulated; levels of mRNA encoding ACE2 ([11]; rhCHI3L1 500 ng/mL, vs vehicle): significantly upregulated; levels of mRNA encoding cathepsin L (CTSL) ([11]; rhCHI3L1 500 ng/mL, vs vehicle): significantly upregulated; levels of mRNA encoding ACE2 [12]: significantly upregulated; levels of mRNA encoding CTSL [12]: significantly upregulated; levels of mRNA encoding TMPRSS2 [12]: significantly upregulated; levels of mRNA encoding ACE2 [13, 16]: significantly upregulated; levels of mRNA encoding CTSL [13, 16]: significantly upregulated; levels of mRNA encoding FURIN [13, 16]: significantly upregulated; levels of mRNA encoding TMPRSS2 [13, 16]: significantly upregulated; cellular integration of S proteins (GFP expression) ([14]; rCHI3L1 24 hours before pseudovirus): stimulated |
| B1 |  |  |  |  |  |  |  |  | levels of basal ACE2 expression ([13]; Calu-3 cells, 250 ng/mL FRG vs isotype control, 24 hours): modestly diminished; ability of rhCHI3L1 to stimulate ACE2 mRNA accumulation [13, 17]: potently inhibited; basal and rhCHI3L1-stimulated expression of CTSL [13, 17]: potently decreased; basal and rhCHI3L1-stimulated expression of FURIN [13, 17]: potently decreased; basal and rhCHI3L1-stimulated expression of TMPRSS2 [13, 17]: potently decreased; CHI3L1 stimulation of ACE2 and the SAPs ([13]; summary of Examples 1 and 2): fully reversed; CHI3L1 effect on cellular integration of S proteins (GFP expression by flow cytometry) ([14]; rCHI3L1 250 ng/mL 24 hours, FRG vs control IgG): abrogated |
